Reference: BindingDB's records for doi:10.1111/cbdd.12796 (Fudan University, 2016)
Values joined by “and” are separate entries in the source; they are usually repeats but may differ in a detail not shown here. Equal values may be shown once.

Tests used:
D(1A) dopamine receptor [1] = molecular target: T1, D(1A) dopamine receptor (Homo sapiens, UniProt P21728); test: Competitive Binding Assays
D(2) dopamine receptor = D(2) dopamine receptor (Homo sapiens, UniProt P14416); test: Competitive Binding Assays
Sequence of D(2) dopamine receptor (P14416 whole entry): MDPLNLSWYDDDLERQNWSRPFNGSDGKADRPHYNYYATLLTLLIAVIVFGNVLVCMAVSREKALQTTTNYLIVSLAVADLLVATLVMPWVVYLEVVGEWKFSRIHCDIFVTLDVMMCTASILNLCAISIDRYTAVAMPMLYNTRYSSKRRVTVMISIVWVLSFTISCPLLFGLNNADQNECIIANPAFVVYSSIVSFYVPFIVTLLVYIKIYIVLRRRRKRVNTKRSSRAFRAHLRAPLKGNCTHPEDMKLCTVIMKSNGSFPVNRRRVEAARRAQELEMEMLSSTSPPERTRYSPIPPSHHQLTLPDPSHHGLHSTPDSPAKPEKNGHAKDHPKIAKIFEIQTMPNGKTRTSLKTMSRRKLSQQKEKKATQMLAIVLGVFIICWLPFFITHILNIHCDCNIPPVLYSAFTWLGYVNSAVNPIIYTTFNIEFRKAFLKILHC

D(3) dopamine receptor = D(3) dopamine receptor (Homo sapiens, UniProt P35462); test: Competitive Binding Assays
Sequence of D(3) dopamine receptor (P35462 as listed by the source): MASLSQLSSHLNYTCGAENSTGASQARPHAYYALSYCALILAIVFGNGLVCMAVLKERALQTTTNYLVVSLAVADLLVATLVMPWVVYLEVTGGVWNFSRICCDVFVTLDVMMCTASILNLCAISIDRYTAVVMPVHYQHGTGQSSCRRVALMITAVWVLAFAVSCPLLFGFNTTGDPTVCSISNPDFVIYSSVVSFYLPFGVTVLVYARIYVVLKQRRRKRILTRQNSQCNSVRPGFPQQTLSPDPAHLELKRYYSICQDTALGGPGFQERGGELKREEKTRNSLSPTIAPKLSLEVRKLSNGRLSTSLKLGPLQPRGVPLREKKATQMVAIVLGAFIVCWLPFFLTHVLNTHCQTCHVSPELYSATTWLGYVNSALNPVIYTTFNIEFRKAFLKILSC

D(1A) dopamine receptor [2] = molecular target: T1, D(1A) dopamine receptor; test: D1R Functional Assay; conditions: pH 7.5

T1 sequence (P21728 whole entry): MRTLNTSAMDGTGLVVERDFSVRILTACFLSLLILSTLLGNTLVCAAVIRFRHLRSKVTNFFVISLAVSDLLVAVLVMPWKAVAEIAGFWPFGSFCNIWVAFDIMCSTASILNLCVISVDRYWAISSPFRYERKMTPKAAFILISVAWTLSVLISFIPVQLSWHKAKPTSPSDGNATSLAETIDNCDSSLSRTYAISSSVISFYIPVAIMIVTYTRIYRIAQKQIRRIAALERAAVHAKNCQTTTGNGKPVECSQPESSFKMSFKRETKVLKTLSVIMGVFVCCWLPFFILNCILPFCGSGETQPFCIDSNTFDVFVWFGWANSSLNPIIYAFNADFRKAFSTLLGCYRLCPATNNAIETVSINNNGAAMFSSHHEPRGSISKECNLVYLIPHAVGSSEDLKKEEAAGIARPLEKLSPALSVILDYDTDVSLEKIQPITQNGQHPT

SMILES	Ki (D(1A) dopamine receptor [1])	Ki (D(2) dopamine receptor)	Ki (D(3) dopamine receptor)	IC50 (D(1A) dopamine receptor [2])
COc1cc2c(cc1OC)C1Cc3ccc(OC)c(OC)c3CCN1CC2 (stereo not drawn) [2,3,10,11-tetramethoxy-5,6,8,9,14,14a-hexahydrobenzo[4,5]azepino[2,1-a]isoquinoline (15c)]	0.0573 µM	0.0298 µM	0.022 µM	
COc1cc2c(cc1OC)CC1c3cc(OC)c(OC)cc3CCN1CC2 (stereo not drawn) [2,3,11,12-tetramethoxy-5,6,8,9,14,14a-hexahydrobenzo[4,5]azepino[2,1-a]isoquinoline (15a)]	0.0339 µM	0.0265 µM	0.0133 µM	
COc1cc2c(cc1O)C1Cc3ccc(OC)c(OC)c3CCN1CC2 (stereo not drawn) [3,10,11-trimethoxy-5,6,8,9,14,14a-hexahydrobenzo[4,5]azepino[2,1-a]isoquinolin-2-ol (15d)]	0.0303 µM	0.084 µM	0.284 µM	33.5 µM
COc1cc2c(cc1OC(C)=O)C1Cc3ccc(OC)c(OC)c3CCN1CC2 (stereo not drawn) [3,10,11-trimethoxy-5,6,8,9,14,14a-hexahydrobenzo[4,5]azepino[2,1-a]isoquinolin-2-ylacetate (19)]	0.474 µM	0.052 µM	0.0737 µM	
COc1cc2c(cc1O)C1Cc3cc(OC)c(OC)cc3CCN1CC2 (stereo not drawn) [3,11,12-trimethoxy-5,6,8,9,14,14a-hexahydrobenzo[4,5]azepino[2,1-a]isoquinolin-2-ol (15b)]	0.0691 µM	0.00696 µM	0.0392 µM	
COc1cc2c(cc1O)C1Cc3ccc(OC)c(O)c3CCN1CC2 (stereo not drawn) [3,11-dimethoxy-5,6,8,9,14,14a-hexahydrobenzo[4,5]azepino[2,1-a]isoquinoline-2,10-diol ((+)-15e)]		0.0366 µM and 0.0344 µM and 0.0583 µM		0.14 µM
Oc1cc2c(cc1O)C1Cc3ccc(O)c(O)c3CCN1CC2 (stereo not drawn) [5,6,8,9,14,14a-hexahydrobenzo[4,5]azepino[2,1-a]isoquinoline-2,3,10,11-tetraol (18)]	0.0337 µM	0.0722 µM	0.471 µM	115 µM
COc1ccc2c(c1OC)CCN1CCc3cc4c(cc3C1C2)OCO4 (stereo not drawn) [Hexahydrobenzo[4,5]azepino[2,1-a]isoquinoline, 16]	0.0603 µM	0.00426 µM	0.0273 µM	
COc1ccc2c(c1OC)CCN1CCc3cc(O)c(O)cc3C1C2 (stereo not drawn) [Hexahydrobenzo[4,5]azepino[2,1-a]isoquinoline, 17]	0.22 µM	0.0392 µM	0.0612 µM	
